The text below walks through data of patent US4443436A, “C-20-Modified macrolide derivatives of the macrolide antibiotics tylosin, desmycosin, macrocin, and lactenocin” (Eli Lilly and Company, priority 1982, dated 1984).

For experiment [1], the system named is Staphylococcus epidermidis EPI2. In words: MIC, standard agar-dilution assay, Staphylococcus epidermidis EPI2. The class given is cell-based.
The next experiment has as its system Mycoplasma hyorhinis. In words: MIC, broth-dilution microtiter test, Mycoplasma hyorhinis. The experiment is classed as cell-based. An excerpt:
(§1) The MIC's in Table X were obtained using conventional broth-dilution microtiter tests.

Experiment [2] deals with Staphylococcus aureus X1.1. Put plainly: MIC, standard agar-dilution assay, Staphylococcus aureus X1.1. Conditions: Staphylococcus aureus X1.1, agar dilution. The experiment is classed as cell-based.
For experiment [3], the system named is Streptococcus pyogenes C203. Put plainly: MIC, standard agar-dilution assay, Streptococcus pyogenes C203. The experiment is classed as cell-based. The note with it: Streptococcus pyogenes C203, agar dilution. For orientation: Agar dilution tests growth on a series of plates holding different concentrations.
A further experiment concerns Mycoplasma hyopneumoniae. In words: MIC, broth-dilution microtiter test, Mycoplasma hyopneumoniae. The experiment is classed as cell-based. The note with it: Mycoplasma hyopneumoniae, broth-dilution microtiter.
Text: as §1

Experiment [4] deals with Pasteurella multocida 17E. In words: MIC, broth-dilution microtiter test, Pasteurella multocida 17E. The class given is cell-based. Conditions: Pasteurella multocida 17E, bovine isolate, broth-dilution microtiter.
Text: as §1

The next experiment has as its system Staphylococcus aureus. Put plainly: MIC, broth-dilution microtiter test, Staphylococcus aureus. The class given is cell-based.
Text: as §1

Experiment [5] has as its system Pasteurella multocida. Put plainly: Subcutaneous treatment of Pasteurella multocida-infected chicks. The class given is in vivo, one-day-old chicks. The note with it: 30 mg/kg × 2, 1 and 4 hours post-challenge. The protocol: Many of the C-20 modified derivatives of this invention have also shown in vivo antibacterial activity against infections induced by gram-negative bacteria. Tables XII and XIII summarize the results of tests in which illustrative compounds were evaluated against Pasteurella infection in one-day-old chicks. The compounds were administered parenterally or orally after challenge of the chicks with Pasteurella multocida (0.1 ml of a 10^-4 dilution of a twenty-hour tryptose broth culture of an avian P. multocida given subcutaneously). In these tests, unless indicated otherwise, all non-medicated infected chicks died within 24 hours of Pasteurella challenge. In the tests summarized in Table XII the compounds were administered by subcutaneous injection at a dosage of 30 mg/kg, 1 and 4 hours post-challenge of the chicks with P. multocida. In the test summarized in Table XIII the compounds were administered by gavage at 1 and 5 hours post-challenge of the chicks with P. multocida.

In experiment [6] the test system is Staphylococcus aureus V41. In words: MIC, standard agar-dilution assay, Staphylococcus aureus V41. The class given is cell-based.
Experiment [7] has as its system Haemophilus influenzae R252. Put plainly: MIC, standard agar-dilution assay, Haemophilus influenzae R252. The class given is cell-based. Conditions: Haemophilus influenzae R252, ampicillin-resistant strain.
The next experiment deals with Mycoplasma gallisepticum. In words: MIC, broth-dilution microtiter test, Mycoplasma gallisepticum. The class given is cell-based.
Text: as §1

The subject of experiment [8] is Streptococcus pyogenes C203. In words: In vivo protection of mice experimentally infected with S. pyogenes C203. Conditions: mice, doses given 1 and 4 hours post-infection; for ED50: Streptococcus pyogenes. The protocol: The C-20 modified derivatives of this invention have shown in vivo antimicrobial activity against experimentally-induced infections in laboratory animals. When two doses of test compound were administered to mice experimentally infected with S. pyogenes C203, the activity observed was measured as an ED50 value [effective dose in mg/kg to protect 50% of the test animals: see Warren Wick, et al., J. Bacteriol. 81, 233-235 (1961)].

The subject of experiment [9] is Staphylococcus aureus X400. Put plainly: MIC, standard agar-dilution assay, Staphylococcus aureus X400. Conditions: Staphylococcus aureus X400, methicillin-resistant strain, agar dilution. The experiment is classed as cell-based.
Experiment [10] relates to Pasteurella hemolytica 22C. Put plainly: MIC, broth-dilution microtiter test, Pasteurella hemolytica 22C. The experiment is classed as cell-based. The note with it: Pasteurella hemolytica 22C, broth-dilution microtiter.
Text: as §1

Experiment [11] has as its system Streptococcus pneumoniae Park I. Put plainly: microbe, parasite or virus in culture. The experiment is classed as cell-based.
For experiment [12], the system named is Staphylococcus epidermidis EPI1. Put plainly: MIC, standard agar-dilution assay, Staphylococcus epidermidis EPI1. The experiment is classed as cell-based. Conditions: Staphylococcus epidermidis EPI1, agar dilution.
Experiment [13] relates to Pasteurella multocida 60A. Put plainly: MIC, broth-dilution microtiter test, Pasteurella multocida 60A. The class given is cell-based. Conditions: Pasteurella multocida 60A, avian isolate, broth-dilution microtiter.
Text: as §1

Experiment [14] has as its system Streptococcus Group D X66. Put plainly: MIC, standard agar-dilution assay, Streptococcus Group D X66. The class given is cell-based. Conditions: Streptococcus Group D X66, agar dilution.
For the next experiment, the system named is Mycoplasma synoviae. Put plainly: MIC, broth-dilution microtiter test, Mycoplasma synoviae. The class given is cell-based.
Text: as §1

Experiment [15] has as its system Pasteurella multocida. Put plainly: Oral (gavage) treatment of Pasteurella multocida-infected chicks. The class given is in vivo, one-day-old chicks. An outline of the steps: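 One-day-old chicks challenged subcutaneously with 0.1 ml of a 10^-4 dilution of a 20-hour tryptose broth culture of avian P. multocida. Compounds given by subcutaneous injection at 30 mg/kg 1 and 4 hours post-challenge, or by oral gavage 1 and 5 hours post-challenge.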

A further experiment relates to Streptococcus bovis 80. In words: MIC, broth-dilution microtiter test, Streptococcus bovis 80. The class given is cell-based.
Text: as §1

For another experiment, the system named is Streptococcus Group 9960. Put plainly: MIC, standard agar-dilution assay, Streptococcus Group 9960. The note with it: Streptococcus Group 9960; agar dilution. The experiment is classed as cell-based.
Experiment [16] deals with Staphylococcus aureus S13E. Put plainly: MIC, standard agar-dilution assay, Staphylococcus aureus S13E. The experiment is classed as cell-based. Conditions: Staphylococcus aureus S13E; agar dilution.
The test system of experiment [17] is Haemophilus influenzae Holt. In words: MIC, standard agar-dilution assay, Haemophilus influenzae Holt. The experiment is classed as cell-based. Conditions: Haemophilus influenzae Holt; ampicillin-sensitive strain; agar dilution.

Values after ≈ are worked out from the molar mass of the structure shown. Like-named read-outs stand apart in the source and are kept apart here.

Take `CCOC(=O)C1CSC(CC2CC(C)C(=O)C=CC(C)=CC(COC3OC(C)C(O)C(OC)C3OC)C(CC)OC(=O)CC(O)C(C)C2OC2OC(C)C(O)C(N(C)C)C2O)N1` (stereo not drawn) [Compound 76]: the MIC stood at 0.25 µg/mL (≈ 0.277 µM) in [1] (Staphylococcus epidermidis, EPI2); 50 µg/mL (≈ 55.4 µM) against Mycoplasma hyorhinis (Mycoplasma); 0.51 µg/mL (≈ 0.565 µM) in experiment [2] (read-out: MIC); 0.53 µg/mL (≈ 0.587 µM) in experiment [3] (read-out: MIC); 0.19 µg/mL (≈ 0.21 µM) with Mycoplasma hyopneumoniae (Mesomycoplasma hyopneumoniae, read-out: MIC); 25 µg/mL (≈ 27.7 µM) in experiment [4] (read-out: MIC). Also, the MIC against Staphylococcus aureus worked out at 0.78 µg/mL (≈ 0.864 µM); in [6] (Staphylococcus aureus, V41) it was 0.5 µg/mL (≈ 0.554 µM); in experiment [7] (read-out: MIC), 3250 µg/mL (≈ 3600 µM); with Mycoplasma gallisepticum (Mycoplasmoides gallisepticum) it was 1.56 µg/mL (≈ 1.73 µM); in [9] (read-out: MIC) it was 2400 µg/mL (≈ 2660 µM); in [10] (read-out: MIC), 25 µg/mL (≈ 27.7 µM). The MIC stood at 0.25 µg/mL (≈ 0.277 µM) in experiment [11] (Streptococcus pneumoniae); 0.51 µg/mL (≈ 0.565 µM) in [12] (read-out: MIC); 25 µg/mL (≈ 27.7 µM) in experiment [13] (read-out: MIC); 466 µg/mL (≈ 516 µM) in experiment [14] (read-out: MIC); 3.12 µg/mL (≈ 3.45 µM) against Mycoplasma synoviae (Mycoplasmopsis synoviae); 3.12 µg/mL (≈ 3.45 µM) in the experiment on Streptococcus bovis 80 (Streptococcus equinus, 80). In addition, the “Number of Deaths/Number Treated” value in the experiment with Pasteurella multocida [5] is reported as 3/10. For the same compound, the ED50 in experiment [8] (C203, sc, subcutaneous, read-out: ED50, Subcutaneous) turned out to be 4.8 mg/kg; in experiment [8] (C203, oral, read-out: ED50, Oral), 17 mg/kg. The “Number of Deaths/Number tested” value is listed as 3/10 in the experiment with Pasteurella multocida [15] (0.5 g/gal equivalent); 4/10 with Pasteurella multocida [15] (1.0 g/gal equivalent, 13/20 infected nonmedicated chicks died in this test); 4/10 in the experiment with Pasteurella multocida [15] (2.0 g/gal equivalent, 11/20 infected nonmedicated chicks died in this test).
Consider `CCC1OC(=O)CC(O)C(C)C(OC2OC(C)C(O)C(N(C)C)C2O)C(CCS(=O)(=O)c2ccc(C)cc2)CC(C)C(=O)C=CC(C)=CC1COC1OC(C)C(O)C(OC)C1OC` (stereo not drawn) [Compound 46, 20-DH-DO-20-(p-Toluenesulfonyl)desmycosin], for which the MIC in experiment [1] (Staphylococcus epidermidis EPI2, agar dilution) was determined as 0.12 µg/mL (≈ 0.132 µM); against Mycoplasma hyorhinis (Mycoplasma hyorhinis, broth-dilution microtiter), 50 µg/mL (≈ 54.8 µM); in experiment [2], 0.25 µg/mL (≈ 0.274 µM); against Streptococcus Group 9960 it was 8 µg/mL (≈ 8.77 µM); in experiment [3] it was 1 µg/mL (≈ 1.1 µM); against Mycoplasma hyopneumoniae, 12.5 µg/mL (≈ 13.7 µM). For the same compound, the MIC came out at 12.5 µg/mL (≈ 13.7 µM) in [4]; 0.39 µg/mL (≈ 0.428 µM) with Staphylococcus aureus (broth-dilution microtiter); 0.25 µg/mL (≈ 0.274 µM) in [6] (Staphylococcus aureus V41, penicillin-resistant strain, agar dilution); 8 µg/mL (≈ 8.77 µM) in experiment [7] (agar dilution); 0.19 µg/mL (≈ 0.208 µM) against Mycoplasma gallisepticum (Mycoplasma gallisepticum, broth-dilution microtiter); 0.25 µg/mL (≈ 0.274 µM) in experiment [16]. Also, the MIC in experiment [9] stood at 0.25 µg/mL (≈ 0.274 µM); in [10], 12.5 µg/mL (≈ 13.7 µM); in experiment [11] (Streptococcus pneumoniae Park I, agar dilution) it was 1 µg/mL (≈ 1.1 µM); in [12], 0.25 µg/mL (≈ 0.274 µM); in experiment [17], 4 µg/mL (≈ 4.39 µM); in [13], 12.5 µg/mL (≈ 13.7 µM). Also, the MIC came to 8 µg/mL (≈ 8.77 µM) in [14]; 0.78 µg/mL (≈ 0.855 µM) against Mycoplasma synoviae (Mycoplasma synoviae, broth-dilution microtiter); 6.25 µg/mL (≈ 6.85 µM) in the experiment with Streptococcus bovis 80 (Streptococcus bovis 80, broth-dilution microtiter). Besides, the “Number of Deaths/Number Treated” value in the experiment on Pasteurella multocida [5] is 0/10. Also, the “ED50, Oral” value in [8] (oral) was > 50 mg/kg × 2. Further, the “ED50, Subcutaneous” value in [8] (subcutaneous) was determined as 4.2 mg/kg × 2.

Broadly, the ED50 is the dose at which the effect has come halfway, by size or by number of responders.
